# According to US20100173915A1, “PHARMACEUTICAL COMPOSITIONS FOR THE TREATMENT OF CHRONIC HEART FAILURE COMPRISING PYRAZOLOPYRIMIDINONE DERIVATIVE COMPOUND” (DONG-A PHARMACEUTICAL. CO., LTD, priority 2007, published 2010):
# Legend:
# [1] = tested on: collagen deposition (ventricular fibrosis); experiment: Collagen deposition in left ventricular tissue (Masson's trichrome) as marker of ventricular fibrosis; assay type: in vivo, Sprague-Dawley rats; details: CHF rats, 30 mg/kg orally for 8 weeks, mean±SD, CHF control 0.928±0.228, normal 0.384±0.103
# Procedure: (§1) Male Sprague-Dawley rats, weighing 220-240 g, were randomly divided into three groups: a normal control group
# (§2) (Normal), a heart failure control group (CHF) and a treatment group (CHF plus cpd.1), each group consisting of seven rats. The pyrazolopyrimidinone derivative was orally administered to heart failure-developed animals of the treatment group in a dose of 30 mg/kg.
# (§3) Normal control animals were subjected to a sham operation. […] After 8 weeks, 5 ml/kg of a solvent was orally administered to the normal control and heart failure control groups for 8 weeks, and the pyrazolopyrimidinone derivative was orally administered to the treatment group at a dose of 30 mg/kg for 8 weeks. Then, rats were anesthetized with pentobarbital (50 mg/kg, i.p.), and subjected to M-mode echocardiography in order to evaluate interventricular septum wall thickness (IWT) at end-systole (S) and end-diastole (D) of the left ventricle, posterior left ventricular wall thickness (PWT), left ventricular end-systolic dimension (LVESD), and left ventricular end-diastolic dimension (LVEDD). The relative wall thickness (RWT) was calculated according to the following equation: [IWT(D)+PWT(D)]/LVEDD, and is given in Table 1, below.
# (§4) After the echocardiographic measurements, blood samples were collected from abdominal aortas to prepare serum samples. […] All values are expressed as mean±SD.
# [2] = target: phosphodiesterase-5 (PDE-5) (Homo sapiens, UniProt O76074); details: cited from earlier work
# [3] = tested on: chronic heart failure-induced rats (abdominal aorta-to-inferior vena cava fistula); experiment: M-mode echocardiography in aortocaval fistula rat model of chronic heart failure; assay type: in vivo, Sprague-Dawley rats; details: CHF rats, 30 mg/kg orally for 8 weeks, mean±SD
# Procedure: as §3, with “Male Sprague-Dawley rats, weighing 220-240 g, were randomly divided into three groups: a normal control group (Normal), a heart failure control group (CHF) and a treatment group (CHF plus cpd.1), each group consisting of seven rats. The pyrazolopyrimidinone derivative was orally administered to heart failure-developed animals of the treatment group in a dose of 30 mg/kg. Normal” for “Normal”
# [4] = In vivo half-life compared to sildenafil; details: longer than sildenafil
# [5] = Physicochemical properties: pKa
# [6] = Physicochemical properties: solubility
# [7] = tested on: atrial natriuretic peptide (ANP); experiment: Serum atrial natriuretic peptide (ANP) levels in heart failure rats; assay type: in vivo, Sprague-Dawley rats; details: CHF rats, 30 mg/kg orally for 8 weeks; mean±SD; CHF control 0.040±0.004, normal 0.029±0.003
# Procedure: as §1, §2, §3, §4
# ANP mRNA = ANP mRNA levels in left ventricular tissue by RT-PCR; assay type: in vivo, Sprague-Dawley rats; details: CHF rats, 30 mg/kg orally for 8 weeks, mean±SD, CHF control 0.963±0.114, normal 0.607±0.169
# Procedure: as §1, §2, §3, §4
structure (smiles),measurement,setting,value
"CCCOc1ccc(S(=O)(=O)NCCC2CCCN2C)cc1-c1nc2c(CCC)nn(C)c2c(=O)[nH]1 (stereo not shown) [cpd.1, 5-[2-propyloxy-5-(1-methyl-2-pyrrolidinyleneamidosulfonyl)phenyl]-1-methyl-propyl-1,6-dihydro-7H-pyrazolo(4,3-d)pyrimidine-7-one]",amount of collagen deposition in ventricular tissue,[1],0.604±0.214
same,inhibitory activity against PDE-5,[2],strong and selective inhibitory activity
same,"RWT, relative wall thickness [IWT(D)+PWT(D)]/LVEDD","[3]; CHF control 0.34 ± 0.02, normal 0.42 ± 0.05",0.42 ± 0.05
same,"IWT(D), interventricular septum wall thickness at end-diastole","[3]; CHF control 1.56 ± 0.09, normal 1.81 ± 0.20",1.74 ± 0.13 mm
same,"PWT(D), posterior left ventricular wall thickness at end-diastole","[3]; CHF control 1.64 ± 0.11, normal 1.83 ± 0.13",1.78 ± 0.04 mm
same,"PWT(S), posterior left ventricular wall thickness at end-systole","[3]; CHF control 2.54 ± 0.18, normal 2.89 ± 0.15",2.80 ± 0.10 mm
same,"IWT(S), interventricular septum wall thickness at end-systole","[3]; CHF control 2.56 ± 0.11, normal 2.83 ± 0.17",2.74 ± 0.11 mm
same,"LVESD, left ventricular end-systolic dimension","[3]; CHF control 6.20 ± 0.70, normal 5.43 ± 0.31",4.68 ± 0.38 mm
same,"LVEDD, left ventricular end-diastolic dimension","[3]; CHF control 9.75 ± 0.85, normal 8.69 ± 0.56",8.45 ± 0.62 mm
same,in vivo half-life relative to sildenafil,[4],3 times
same,pKa1,[5],about 6.5
same,pKa2,[5],about 12.5
same,"solubility in acetic acid, methanol and chloroform","[6]; acetic acid, methanol and chloroform",readily dissolved
same,solubility in water,[6]; water,difficult to dissolve in water
same,serum ANP levels,[7],0.033 ± 0.003 ng/mL
same,ANP mRNA levels in left ventricular tissues,ANP mRNA,0.739±0.120
